Results on 21 molecules are retold here after patent US20110257176A1, “NITROGEN HETEROCYCLE DERIVATIVES AS PROTEASOME MODULATORS” (INSTITUT NATIONAL DE LA SANTE ET DE LA RECHERCHE MEDICALE …, priority 2008, published 2011).

SMILES strings stand for the structures.

Data set [1] concerns rabbit reticulocyte 20S proteasome, trypsin-like (T-L) activity. Briefly: 20S proteasome trypsin-like (T-L) activity, Boc-LRR-AMC hydrolysis. The data set is classed as biochemical. Also noted: key to Inhibition of trypsin-like activity (NI): NI: No Inhibition. To be noted: rabbit 20S proteasome; for Inhibition of trypsin-like activity (NI): screened at 100 μM and 50 μM. How it is done:
(§1) Rabbit erythrocyte 20S proteasome was obtained from Boston Biochem, Cambridge, USA. The fluorogenic substrates Suc-LLVY-AMC, Boc-LRR-AMC and Z-LLE-βNA used to measure the proteasome activities CT-L, T-L and PA respectively were purchased from Bachem (France). Other reagents and solvents were purchased from commercial sources. Fluorescence was measured using a BMG Fluostar microplate reader.
(§2) Compounds 1-23 were tested for their potential to inhibit the CT-L, T-L and PA activities of the rabbit reticulocyte 20S proteasome. Enzyme activities were determined by monitoring the hydrolysis of the appropriate fluorogenic substrate (λexc=360, λem=465 nm for AMC substrates, and λexc=340, λem=405 nm for the βNA substrate) for 1 h at 37° C.
(§3) In the in vitro screening, each compound was tested in duplicate against the three activities, at 100 μM and 50 μM in the corresponding buffer. The buffer were (pH 8): 50 mM Tris, 150 mM NaCl, 10% (v/v) glycerol, 0.025% (w/v) SDS, and 3% (v/v) DMSO (CT-L and PA activities); 50 mM Tris, 150 mM NaCl, 10% (v/v) glycerol, and 3% (v/v) DMSO (T-L activity).
(§4) The inhibitory activity of compounds is expressed as IC50, which corresponds to the concentration of proteasome inhibitor leading to a loss of activity of 50%. The values of IC50 were calculated by fitting the experimental data to equation 1: % Inhibition=100×(1−Vi/V0)=100 [I]0/(IC50+[I]0), or equation 2: % Inhibition=100 [I]0^nH/(IC50^nH+[I]0^nH), where Vi is the initial rate in the presence of the inhibitor, V0 is the initial rate in the absence of the inhibitor, [I]0 is the inhibitor concentration, nH is the Hill number (FIG. 1).

The target in data set [2] is rabbit reticulocyte 20S proteasome, post-acid (PA) activity (Oryctolagus cuniculus, UniProt G1T235). Description: 20S proteasome post-acid (PA) activity, Z-LLE-βNA hydrolysis. Also noted: key to Inhibition of post-acid activity (NI): NI: No Inhibition. The data set is classed as biochemical. To be noted: rabbit 20S proteasome; for Inhibition of post-acid activity (NI): screened at 100 μM and 50 μM; for IC50: pH 8, 37° C. The procedure:
as §1, §2, §3, §4

The target in data set [3] is T1, rabbit reticulocyte 20S proteasome, chymotrypsin-like (CT-L) activity (Oryctolagus cuniculus, UniProt G1T4Q9).
T1 construct: IC50 on chymotrypsin-like activity; other: rabbit 20S proteasome, pH 8, 37° C; Rabbit erythrocyte 20S proteasome was obtained from Boston Biochem, Cambridge, USA
T1 sequence (G1T4Q9 1-263): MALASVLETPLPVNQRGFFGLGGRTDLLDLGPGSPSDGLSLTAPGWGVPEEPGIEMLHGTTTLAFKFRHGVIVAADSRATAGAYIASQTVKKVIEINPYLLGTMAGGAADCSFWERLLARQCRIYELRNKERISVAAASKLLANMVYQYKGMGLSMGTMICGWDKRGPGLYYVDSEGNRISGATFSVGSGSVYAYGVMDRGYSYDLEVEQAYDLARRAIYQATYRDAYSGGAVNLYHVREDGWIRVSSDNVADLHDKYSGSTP
Briefly: 20S proteasome chymotrypsin-like (CT-L) activity, Suc-LLVY-AMC hydrolysis. The data set is classed as biochemical. To be noted: rabbit 20S proteasome, pH 8, 37° C. The procedure:
as §1, §2, §3, §4

The target in data set [4] is T2, rabbit reticulocyte 20S proteasome, chymotrypsin-like (CT-L) activity (UniProt G1T4Q9).
T2 construct: IC50 on chymotrypsin-like activity; other: rabbit 20S proteasome, pH 8, 37° C; Rabbit erythrocyte 20S proteasome was obtained from Boston Biochem, Cambridge, USA
The description is as above. To be noted: rabbit 20S proteasome, pH 8, 37° C. Format: biochemical. The procedure:
as §1, §2, §3, §4

Data set [5] has as its target T3, human erythrocyte 20S proteasome, chymotrypsin-like (CT-L) activity (Homo sapiens, UniProt P28074).
T3 construct: three activities of human erythrocyte 20S proteasome; from tissue; host or cells: human erythrocytes
The data set is described as above. To be noted: for IC50: pH 7.5. The data set is classed as biochemical. The procedure: as §1, §4
(§5) Compounds 24, 25 and 31-35 were tested in duplicate against three activities of human erythrocyte 20S proteasome at 100 and 50 μM in the appropriate buffer (pH 7.5): 20 mM Tris HCl, 10% (v/v) glycerol, 0.01% (w/v) SDS and 2% DMSO (CT-L and PA activities); 20 mM Tris HCl, 10% (v/v) glycerol, and 2% DMSO (T-L activity). The inhibitory activities were analyzed as described above for compounds 1-23.

Data set [6] addresses T4, human erythrocyte 20S proteasome, trypsin-like (T-L) activity (Homo sapiens, UniProt Q99436).
T4 construct: three activities of human erythrocyte 20S proteasome; from tissue; host or cells: human erythrocytes
Briefly: 20S proteasome trypsin-like (T-L) activity, Boc-LRR-AMC hydrolysis. The data set is classed as biochemical. Also noted: key to Inhibition of trypsin-like activity (NI): NI: No Inhibition. To be noted: for inhibition at 100 µM: 100 μM inhibitor, read-out: % inhibition (inhibitor concentration) on trypsin-like activity; for IC50: pH 7.5. How it is done:
as §1, §4, §5

Data set [7] concerns the target T5, human erythrocyte 20S proteasome, post-acid (PA) activity (Homo sapiens, UniProt P28072).
T5 construct: three activities of human erythrocyte 20S proteasome; from tissue; host or cells: human erythrocytes
Description: 20S proteasome post-acid (PA) activity, Z-LLE-βNA hydrolysis. To be noted: screened at 100 and 50 μM. Format: biochemical. More on the design: key: NI: No Inhibition. How it is done:
as §1, §4, §5

Chain of rabbit reticulocyte 20S proteasome, post-acid (PA) activity (G1T235 entry or part of it): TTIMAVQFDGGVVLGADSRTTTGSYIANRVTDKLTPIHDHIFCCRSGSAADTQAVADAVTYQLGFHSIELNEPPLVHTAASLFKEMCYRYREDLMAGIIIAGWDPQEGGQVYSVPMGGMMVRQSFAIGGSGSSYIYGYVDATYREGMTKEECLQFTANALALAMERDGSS

Usually IC50 stands for the concentration needed to halve the response being measured. Regarding `COc1ccc(C(=O)NCCc2nnc(SCC(=O)Nc3cc(C)ccc3OC)n2C)cc1` [Compound 22], the “% inhibition (inhibitor concentration) on trypsin-like activity” value (shortened to “% inhibition (inhibitor concentration)”) in data set [1] (100 μM inhibitor) was 22% (100 μM). Also, the inhibition at 100 µM in data set [2] (100 μM inhibitor, read-out: % inhibition (inhibitor concentration) on post-acid activity) was 16%. This molecule also returned an IC50 in data set [3] of 80 µM.

Consider `C=CCN(Cc1nc(-c2ccccc2)no1)C(=O)COc1ccc(C)cc1` [Compound 18], for which the “Inhibition of trypsin-like activity (NI)” value in data set [1] is “NI”. Also, the “Inhibition of post-acid activity (NI)” value in data set [2] is on record as “NI”. This molecule yielded an IC50 in data set [4] of 0.33 ± 0.03 µM.

For `COc1ccc(-c2noc(CN(C(=O)COc3ccc(Br)cc3)C(C)C)n2)cc1` [Compound 12], the “Inhibition of trypsin-like activity (NI)” value in data set [1] is given as “NI”. The “Inhibition of post-acid activity (NI)” value in data set [2] is reported as “NI”. In data set [4], this molecule showed an IC50 of 0.1 ± 0.01 µM.

By melting point is commonly meant the temperature, or range, at which the solid turns liquid. With `CCN(CC)Cc1noc(CN(C(=O)COc2ccc(Br)cc2)C(C)C)n1` [Compound 34], the melting point stood at 168 °C. Further, in data set [5], the IC50 was 30.9 ± 2.3 µM. Further, the inhibition at 100 µM in data set [6] is 28%. Also, the “Inhibition of post-acid activity (NI)” value in data set [7] was “NI”.

With `CC(C)c1noc(CN(C(=O)COc2ccc(Br)cc2)C(C)C)n1` [Compound 28], the “Inhibition of trypsin-like activity (NI)” value in data set [1] is “NI”. Besides, the 50% inhibitory concentration (IC50) turned out to be 45 ± 1 µM in data set [2] and 12.3 ± 0.3 µM in data set [4].

For the molecule `CC(C)N(Cc1nc(CN2CCOCC2)no1)C(=O)COc1ccc(Br)cc1` [Compound 33], the melting point came out at 110 °C. Also, half-maximal inhibition in data set [5] (IC50) required 78.6 ± 1.6 µM. In addition, in data set [6], the inhibition at 100 µM is 42%. In data set [7], the “Inhibition of post-acid activity (NI)” value was “NI”.

`Cc1noc(CN(C(=O)COc2ccc(Br)cc2)C(C)C)n1` [Compound 27]: the “Inhibition of trypsin-like activity (NI)” value in data set [1] was “NI”. Moreover, the results for the IC50 in data set [2] and in data set [4] were 76 ± 2 µM and 12.3 ± 0.3 µM, respectively.

For the molecule `CC(C)N(Cc1nc(-c2cccc3ccccc23)no1)C(=O)COc1ccc(Br)cc1` [Compound 32], the melting point came to 114 °C. The inhibition at 100 µM in data set [5] (100 μM inhibitor, read-out: % inhibition (inhibitor concentration) on chymotrypsin-like activity) turned out to be 30%. The molecule further came in with an IC50 in data set [6] of 29.1 ± 0.9 µM. For the same molecule, in data set [7], the “Inhibition of post-acid activity (NI)” value is listed as “NI”.

In turn, `COc1ccc(-c2noc(CN(C(=O)COc3ccc(Br)cc3)C(C)C)n2)cc1OC` [Compound 25] came in with a melting point of 135 °C. For the same molecule, in data set [5], the midpoint of inhibition, the IC50, lay at 0.037 ± 0.003 µM. Also, the “Inhibition of trypsin-like activity (NI)” value in data set [6] (screened at 100 and 50 μM) is given as “NI”. Besides, the “Inhibition of post-acid activity (NI)” value in data set [7] was “NI”.

As to `CC(C)N(Cc1nc(CN2CCCCC2)no1)C(=O)COc1ccc(Br)cc1` [Compound 35], the melting point stood at 144 °C. The molecule also yielded an IC50 in data set [5] of 37.3 ± 4.2 µM. The inhibition at 100 µM in data set [6] came to 47%. The “Inhibition of post-acid activity (NI)” value in data set [7] is listed as “NI”.

Consider `COc1ccc(-c2noc(CN(C(=O)COc3ccc(C)cc3)C(C)C)n2)cc1` [Compound 10], for which the “Inhibition of trypsin-like activity (NI)” value in data set [1] is “NI”. Moreover, the “Inhibition of post-acid activity (NI)” value in data set [2] was “NI”. In data set [4], this molecule had an IC50 of 0.71 ± 0.04 µM.

With `Cc1cccc(OCC(=O)N(Cc2nc(-c3cccc(C)c3)no2)C(C)C)c1` [Compound 15], the “Inhibition of trypsin-like activity (NI)” value in data set [1] is listed as “NI”. Besides, in data set [2], the “Inhibition of post-acid activity (NI)” value was “NI”. In addition, the IC50 in data set [4] is approximately 27 µM.

Consider `CC(C)N(Cc1nc(C(C)(C)C)no1)C(=O)COc1ccc(Br)cc1` [Compound 29], for which the “Inhibition of trypsin-like activity (NI)” value in data set [1] was “NI”. In addition, the IC50 in data set [2] came to 28 ± 3 µM; in data set [4] it was 81 ± 4 µM.

Consider `CC(C)N(Cc1nc(-c2ccc(Oc3ccccc3)cc2)no1)C(=O)COc1ccc(Br)cc1` [Compound 24], for which the melting point turned out to be 87 °C. Moreover, in data set [5], the IC50 is 0.61 ± 0.03 µM. Also, in data set [6], the half-maximal inhibitory concentration (IC50) is 10.8 ± 0.4 µM. In addition, the “Inhibition of post-acid activity (NI)” value in data set [7] was “NI”.

As to `CCc1ccc(OCC(=O)N(Cc2nc(-c3cccc(C)c3)no2)C(C)C)cc1` [Compound 3], the “Inhibition of trypsin-like activity (NI)” value in data set [1] is reported as “NI”. Further, the “Inhibition of post-acid activity (NI)” value in data set [2] is “NI”. The molecule further registered a half-maximal inhibitory concentration (IC50) in data set [4] of 0.17 ± 0.01 µM.

As to `COc1ccc(OCC(=O)N(Cc2nc(-c3cccc(C)c3)no2)C(C)C)cc1` [Compound 5], the “Inhibition of trypsin-like activity (NI)” value in data set [1] is “NI”. In addition, in data set [2], the “Inhibition of post-acid activity (NI)” value is recorded as “NI”. The same molecule gave an IC50 in data set [4] of 0.91 ± 0.12 µM.

Turning to `Cc1cccc(-c2noc(CN(C(=O)COc3ccc(Br)cc3)C(C)C)n2)c1` [Compound 4], the “% inhibition (inhibitor concentration)” value in data set [1] (50 μM inhibitor) is on record as 7.3%. Besides, the “Inhibition of post-acid activity (NI)” value in data set [2] is reported as “NI”. This molecule also had an IC50 in data set [4] of 0.51 ± 0.07 µM.

Turning to `COc1ccc(-c2noc(CN(C(=O)C(C)Oc3ccccc3)C(C)C)n2)cc1` (stereo not drawn) [Compound 14], the “Inhibition of trypsin-like activity (NI)” value in data set [1] was “NI”. Further, the “Inhibition of post-acid activity (NI)” value in data set [2] is “NI”. In addition, in data set [4], the IC50 turned out to be 8.05 ± 0.83 µM.

As to `COc1ccc(Cl)cc1NC(=O)CSc1nnc(C(CO)NC(=O)c2ccccc2)n1C` (stereo not drawn) [Compound 23], the “% inhibition (inhibitor concentration)” value in data set [1] (100 μM inhibitor) is listed as 50% (100 μM). Moreover, the “Inhibition of post-acid activity (NI)” value in data set [2] was “NI”. The molecule further yielded an IC50 in data set [3] of 85 µM.

As to `CCc1ccc(OCC(=O)N(Cc2nc(-c3ccc(OC)cc3)no2)C(C)C)cc1` [Compound 7], the “Inhibition of trypsin-like activity (NI)” value in data set [1] was “NI”. Besides, the “Inhibition of post-acid activity (NI)” value in data set [2] was “NI”. For the same molecule, the IC50 in data set [4] came to 0.09 ± 0.006 µM.

For `CCOc1ccc(C(=O)N(Cc2nc(-c3ccc(OC)cc3)no2)C(C)C)cc1` [Compound 20], in data set [1] (50 μM compound, fold activation), the “Activation × of trypsin-like activity” value is “Activation × 3.4 (50 μM)”. Also, the “Inhibition of post-acid activity (NI)” value in data set [2] is “NI”. Moreover, the IC50 in data set [3] is approximately 18 µM.
